Data published in patent US20260028365A1 (BIOGEN MA INC., priority 2022, published 2026).
Counter-ions that a name gives are not always drawn.

What was measured:
JH2 domain of human Tyk2 = JH2 domain of human Tyk2 (Homo sapiens (Human), UniProt P29597); test: JH2 Biochemical Assay (TR-FRET probe displacement); type: binding; conditions: TR-FRET probe displacement, JH2 domain of human Tyk2
Tyk2 = Tyk2 (Homo sapiens (Human), UniProt P29597); test: pSTAT4 Cell Assay (MSD, NK92 cells); type: cell-based; conditions: MSD
Chain of Tyk2 (P29597 whole entry): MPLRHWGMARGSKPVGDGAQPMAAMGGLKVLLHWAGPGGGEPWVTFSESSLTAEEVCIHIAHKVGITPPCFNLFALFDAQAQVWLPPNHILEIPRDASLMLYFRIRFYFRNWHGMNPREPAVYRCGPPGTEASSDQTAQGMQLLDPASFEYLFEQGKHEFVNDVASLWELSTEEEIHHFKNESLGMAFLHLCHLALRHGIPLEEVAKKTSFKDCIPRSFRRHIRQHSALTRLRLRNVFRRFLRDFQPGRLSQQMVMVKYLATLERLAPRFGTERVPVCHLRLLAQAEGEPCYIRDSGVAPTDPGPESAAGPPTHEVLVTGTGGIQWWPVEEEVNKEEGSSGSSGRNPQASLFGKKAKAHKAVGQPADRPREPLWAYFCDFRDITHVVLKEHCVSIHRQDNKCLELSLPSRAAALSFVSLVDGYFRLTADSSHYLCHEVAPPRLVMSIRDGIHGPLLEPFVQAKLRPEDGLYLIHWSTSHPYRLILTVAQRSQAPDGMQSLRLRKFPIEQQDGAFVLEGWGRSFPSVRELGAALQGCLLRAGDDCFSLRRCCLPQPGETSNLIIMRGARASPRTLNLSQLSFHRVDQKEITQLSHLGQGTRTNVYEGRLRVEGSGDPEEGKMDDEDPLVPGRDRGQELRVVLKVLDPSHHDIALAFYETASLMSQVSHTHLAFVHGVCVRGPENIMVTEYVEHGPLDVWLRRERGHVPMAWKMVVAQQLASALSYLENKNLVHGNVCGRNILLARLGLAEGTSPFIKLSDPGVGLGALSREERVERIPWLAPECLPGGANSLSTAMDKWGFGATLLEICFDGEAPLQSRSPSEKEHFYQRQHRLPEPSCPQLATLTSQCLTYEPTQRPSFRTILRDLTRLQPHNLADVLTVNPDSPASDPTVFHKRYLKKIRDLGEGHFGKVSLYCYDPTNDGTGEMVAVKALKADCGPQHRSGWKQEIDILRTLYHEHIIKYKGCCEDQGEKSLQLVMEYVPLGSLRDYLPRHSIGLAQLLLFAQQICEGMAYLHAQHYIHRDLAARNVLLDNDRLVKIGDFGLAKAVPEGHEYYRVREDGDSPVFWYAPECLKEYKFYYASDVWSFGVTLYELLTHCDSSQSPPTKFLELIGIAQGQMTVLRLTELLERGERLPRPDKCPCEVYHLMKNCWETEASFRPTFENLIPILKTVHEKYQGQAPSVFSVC

Chain of JH2 domain of human Tyk2 (P29597 575-876): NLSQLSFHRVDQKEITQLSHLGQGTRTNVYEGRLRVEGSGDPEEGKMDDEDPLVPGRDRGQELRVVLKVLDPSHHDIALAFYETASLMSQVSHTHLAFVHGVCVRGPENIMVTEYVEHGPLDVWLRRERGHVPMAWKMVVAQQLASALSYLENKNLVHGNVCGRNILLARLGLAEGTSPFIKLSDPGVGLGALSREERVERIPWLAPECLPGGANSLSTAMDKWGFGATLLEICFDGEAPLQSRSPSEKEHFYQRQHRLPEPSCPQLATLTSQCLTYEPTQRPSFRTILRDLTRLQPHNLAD

CC(=O)Nc1cc(Nc2cc(C)nc(C(C)(F)F)n2)c(-c2cc3n(n2)CCCN3C)cn1 [Example 240, N-(4-((2-(1,1-difluoroethyl)-6-methylpyrimidin-4-yl)amino)-5-(4-methyl-4,5,6,7-tetrahydropyrazolo[1,5-a]pyrimidin-2-yl)pyridin-2-yl)acetamide]
IC50 (JH2 domain of human Tyk2): ≤ 10 nM
IC50 (Tyk2): ≤ 10 nM

CC(=O)Nc1cc(Nc2cc(C)nc(C(C)(F)F)n2)c(-c2cc(OC(C)C)ncn2)cn1 [Example 242, N-(4-((2-(1,1-difluoroethyl)-6-methylpyrimidin-4-yl)amino)-5-(6-isopropoxypyrimidin-4-yl)pyridin-2-yl)acetamide]
IC50 (JH2 domain of human Tyk2): ≤ 10 nM
IC50 (Tyk2): 10 to 100 nM

CCOc1cc(-c2cnc(NC(C)=O)cc2Nc2cc(C)nc(C(C)(F)F)n2)ncn1 [Example 243, N-(4-((2-(1,1-difluoroethyl)-6-methylpyrimidin-4-yl)amino)-5-(6-ethoxypyrimidin-4-yl)pyridin-2-yl)acetamide]
IC50 (JH2 domain of human Tyk2): ≤ 10 nM
IC50 (Tyk2): 10 to 100 nM

CCc1cc(-c2cnc(NC(C)=O)cc2Nc2cc(C)nc(C(C)(F)F)n2)ncn1 [Example 244, N-(4-((2-(1,1-difluoroethyl)-6-methylpyrimidin-4-yl)amino)-5-(6-ethylpyrimidin-4-yl)pyridin-2-yl)acetamide]
IC50 (JH2 domain of human Tyk2): ≤ 10 nM
IC50 (Tyk2): 10 to 100 nM

CC(=O)Nc1cc(Nc2cc(C)nc(C(C)(F)F)n2)c(-c2cc(C(C)C)ncn2)cn1 [Example 245, N-(4-((2-(1,1-difluoroethyl)-6-methylpyrimidin-4-yl)amino)-5-(6-isopropylpyrimidin-4-yl)pyridin-2-yl)acetamide]
IC50 (JH2 domain of human Tyk2): ≤ 10 nM
IC50 (Tyk2): 10 to 100 nM

CC(=O)Nc1cc(Nc2cc(C)nc(C(C)(F)F)n2)c(-c2cc(N(C)C)ncn2)cn1 [Example 247, N-(4-((2-(1,1-difluoroethyl)-6-methylpyrimidin-4-yl)amino)-5-(6-(dimethylamino)pyrimidin-4-yl)pyridin-2-yl)acetamide]
IC50 (JH2 domain of human Tyk2): ≤ 10 nM
IC50 (Tyk2): ≥ 1000 nM

COCCn1cnc(-c2cnc(NC(C)=O)cc2Nc2cc(C)nc(C(C)(F)F)n2)cc1=O [Example 250, N-(4-((2-(1,1-difluoroethyl)-6-methylpyrimidin-4-yl)amino)-5-(1-(2-methoxyethyl)-6-oxo-1,6-dihydropyrimidin-4-yl)pyridin-2-yl)acetamide]
IC50 (JH2 domain of human Tyk2): ≤ 10 nM
IC50 (Tyk2): 100 to 1000 nM

CC(=O)Nc1cc(Nc2cc(C)nc(C(C)(F)F)n2)c(-c2cccnn2)cn1 [Example 251, N-(4-((2-(1,1-difluoroethyl)-6-methylpyrimidin-4-yl)amino)-5-(pyridazin-3-yl)pyridin-2-yl)acetamide]
IC50 (JH2 domain of human Tyk2): ≤ 10 nM
IC50 (Tyk2): ≤ 10 nM

CC(=O)Nc1cc(Nc2cc(C)nc(C(C)(F)F)n2)c(-c2cc(C)cnn2)cn1 [Example 252, N-(4-((2-(1,1-difluoroethyl)-6-methylpyrimidin-4-yl)amino)-5-(5-methylpyridazin-3-yl)pyridin-2-yl)acetamide]
IC50 (JH2 domain of human Tyk2): ≤ 10 nM
IC50 (Tyk2): ≤ 10 nM

CC(=O)Nc1cc(Nc2cc(C)nc(C(C)(F)F)n2)c(-c2cc(NC(C)C)cnn2)cn1 [Example 254, N-(4-((2-(1,1-difluoroethyl)-6-methylpyrimidin-4-yl)amino)-5-(5-(isopropylamino)pyridazin-3-yl)pyridin-2-yl)acetamide]
IC50 (JH2 domain of human Tyk2): ≤ 10 nM
IC50 (Tyk2): ≤ 10 nM

CC(=O)Nc1cc(Nc2ccnc(C(C)(F)F)n2)c(-c2nnc(N3CCOCC3)s2)cn1 [Example 255, N-(4-((2-(1,1-difluoroethyl)pyrimidin-4-yl)amino)-5-(5-morpholino-1,3,4-thiadiazol-2-yl)pyridin-2-yl)acetamide]
IC50 (JH2 domain of human Tyk2): ≤ 10 nM
IC50 (Tyk2): ≤ 10 nM

CC(=O)Nc1cc(Nc2ccnc(C(C)(F)F)n2)c(-c2cc(N(C)C)ncn2)cn1 [Example 256, N-(4-((2-(1,1-difluoroethyl)pyrimidin-4-yl)amino)-5-(6-(dimethylamino)pyrimidin-4-yl)pyridin-2-yl)acetamide]
IC50 (JH2 domain of human Tyk2): 10 to 100 nM
IC50 (Tyk2): ≥ 1000 nM

COCCn1ccc(-c2cnc(NC(C)=O)cc2Nc2cc(C)nc(C(C)(F)F)n2)n1 [Example 257, N-(4-((2-(1,1-difluoroethyl)-6-methylpyrimidin-4-yl)amino)-5-(1-(2-methoxyethyl)-1H-pyrazol-3-yl)pyridin-2-yl)acetamide]
IC50 (JH2 domain of human Tyk2): ≤ 10 nM
IC50 (Tyk2): ≤ 10 nM

COCCn1nccc1-c1cnc(NC(C)=O)cc1Nc1cc(C)nc(C(C)(F)F)n1 [Example 258, N-(4-((2-(1,1-difluoroethyl)-6-methylpyrimidin-4-yl)amino)-5-(1-(2-methoxyethyl)-1H-pyrazol-5-yl)pyridin-2-yl)acetamide]
IC50 (JH2 domain of human Tyk2): 100 to 1000 nM
IC50 (Tyk2): 100 to 1000 nM

COCCn1cc(-c2cnc(NC(C)=O)cc2Nc2cc(C)nc(C(C)(F)F)n2)nn1 [Example 259, N-(4-((2-(1,1-difluoroethyl)-6-methylpyrimidin-4-yl)amino)-5-(1-(2-methoxyethyl)-1H-1,2,3-triazol-4-yl)pyridin-2-yl)acetamide]
IC50 (JH2 domain of human Tyk2): ≤ 10 nM
IC50 (Tyk2): ≤ 10 nM

CCc1cc(Nc2cc(NC(C)=O)ncc2-c2cnn(CCOC)n2)nc(C(C)(F)F)n1 [Example 261, N-(4-((2-(1,1-difluoroethyl)-6-ethylpyrimidin-4-yl)amino)-5-(2-(2-methoxyethyl)-2H-1,2,3-triazol-4-yl)pyridin-2-yl)acetamide]
IC50 (JH2 domain of human Tyk2): ≤ 10 nM
IC50 (Tyk2): ≤ 10 nM

CCc1cc(Nc2cc(NC(C)=O)ncc2-c2cn(CCOC)nn2)nc(C(C)(F)F)n1 [Example 262, N-(4-((2-(1,1-difluoroethyl)-6-ethylpyrimidin-4-yl)amino)-5-(1-(2-methoxyethyl)-1H-1,2,3-triazol-4-yl)pyridin-2-yl)acetamide]
IC50 (JH2 domain of human Tyk2): ≤ 10 nM
IC50 (Tyk2): ≤ 10 nM

COCCn1cnc(-c2cnc(NC(C)=O)cc2Nc2cc(C)nc(C(C)(F)F)n2)n1 [Example 263, N-(4-((2-(1,1-difluoroethyl)-6-methylpyrimidin-4-yl)amino)-5-(1-(2-methoxyethyl)-1H-1,2,4-triazol-3-yl)pyridin-2-yl)acetamide]
IC50 (JH2 domain of human Tyk2): ≤ 10 nM
IC50 (Tyk2): 100 to 1000 nM

COC(C)(C)c1cc(-c2cnc(NC(C)=O)cc2Nc2cc(C)nc(C(C)(F)F)n2)ncn1 [Example 264, N-(4-((2-(1,1-difluoroethyl)-6-methylpyrimidin-4-yl)amino)-5-(6-(2-methoxypropan-2-yl)pyrimidin-4-yl)pyridin-2-yl)acetamide]
IC50 (JH2 domain of human Tyk2): 100 to 1000 nM
IC50 (Tyk2): 100 to 1000 nM

CC(=O)Nc1cc(Nc2ccnc(C(C)(F)F)n2)c(-c2ccc(COC(F)F)cn2)cn1 [Example 265, N-(4′-((2-(1,1-difluoroethyl)pyrimidin-4-yl)amino)-5-((difluoromethoxy)methyl)-[2,3′-bipyridin]-6′-yl)acetamide]
IC50 (JH2 domain of human Tyk2): ≤ 10 nM
IC50 (Tyk2): ≤ 10 nM

CCc1cc(Nc2cc(NC(C)=O)ncc2-c2ccc(OCCOC)nn2)nc(C(C)(F)F)n1 [Example 269, N-(4-((2-(1,1-difluoroethyl)-6-ethylpyrimidin-4-yl)amino)-5-(6-(2-methoxyethoxy)pyridazin-3-yl)pyridin-2-yl)acetamide trifluoroacetate]
IC50 (JH2 domain of human Tyk2): ≤ 10 nM
IC50 (Tyk2): ≤ 10 nM

CC(=O)Nc1cc(Nc2cc(C)nc(C(C)(F)F)n2)c(-c2csc(N(C)C)n2)cn1 [Example 271, N-(4-((2-(1,1-difluoroethyl)-6-methylpyrimidin-4-yl)amino)-5-(2-(dimethylamino)thiazol-4-yl)pyridin-2-yl)acetamide]
IC50 (JH2 domain of human Tyk2): ≤ 10 nM
IC50 (Tyk2): ≤ 10 nM

CC(=O)Nc1cc(Nc2cc(C)nc(C(C)(F)F)n2)c(-c2cc(C(C)(C)O)n(C)n2)cn1 [Example 272, N-(4-((2-(1,1-difluoroethyl)-6-methylpyrimidin-4-yl)amino)-5-(5-(2-hydroxypropan-2-yl)-1-methyl-1H-pyrazol-3-yl)pyridin-2-yl)acetamide]
IC50 (JH2 domain of human Tyk2): ≤ 10 nM
IC50 (Tyk2): ≤ 10 nM

COc1cncc(-c2cnc(NC(C)=O)cc2Nc2ccnc(C(C)(F)F)n2)n1 [Example 273, N-(4-((2-(1,1-difluoroethyl)pyrimidin-4-yl)amino)-5-(6-methoxypyrazin-2-yl)pyridin-2-yl)acetamide]
IC50 (JH2 domain of human Tyk2): 10 to 100 nM
IC50 (Tyk2): 100 to 1000 nM

COCCNc1cncc(-c2cnc(NC(C)=O)cc2Nc2ccnc(C(C)(F)F)n2)n1 [Example 274, N-(4-((2-(1,1-difluoroethyl)pyrimidin-4-yl)amino)-5-(6-((2-methoxyethyl)amino)pyrazin-2-yl)pyridin-2-yl)acetamide]
IC50 (JH2 domain of human Tyk2): ≤ 10 nM
IC50 (Tyk2): 10 to 100 nM

COCCN(C)c1cncc(-c2cnc(NC(C)=O)cc2Nc2ccnc(C(C)(F)F)n2)n1 [Example 275, N-(4-((2-(1,1-difluoroethyl)pyrimidin-4-yl)amino)-5-(6-((2-methoxyethyl)(methyl)amino)pyrazin-2-yl)pyridin-2-yl)acetamide]
IC50 (JH2 domain of human Tyk2): ≤ 10 nM
IC50 (Tyk2): 100 to 1000 nM

CC(=O)Nc1cc(Nc2cc(C)nc(C(C)(F)F)n2)c(-n2cc3c(n2)CCN(C)C3)cn1 [Example 277, N-(4-((2-(1,1-difluoroethyl)-6-methylpyrimidin-4-yl)amino)-5-(5-methyl-4,5,6,7-tetrahydro-2H-pyrazolo[4,3-c]pyridin-2-yl)pyridin-2-yl)acetamide]
IC50 (JH2 domain of human Tyk2): ≤ 10 nM
IC50 (Tyk2): ≤ 10 nM

CCc1cc(Nc2cc(NC(C)=O)ncc2-c2nc(C)no2)nc(C(C)(F)F)n1 [Example 281, N-(4-((2-(1,1-difluoroethyl)-6-ethylpyrimidin-4-yl)amino)-5-(3-methyl-1,2,4-oxadiazol-5-yl)pyridin-2-yl)acetamide]
IC50 (JH2 domain of human Tyk2): ≤ 10 nM
IC50 (Tyk2): 10 to 100 nM

CC(=O)Nc1cc(Nc2cc(C)nc(C(C)(F)F)n2)c(-c2cc3n(n2)CCNC3)cn1 [Example 282, N-(4-((2-(1,1-difluoroethyl)-6-methylpyrimidin-4-yl)amino)-5-(4,5,6,7-tetrahydropyrazolo[1,5-a]pyrazin-2-yl)pyridin-2-yl)acetamide]
IC50 (JH2 domain of human Tyk2): ≤ 10 nM
IC50 (Tyk2): ≤ 10 nM

CCN1CCn2nc(-c3cnc(NC(C)=O)cc3Nc3cc(C)nc(C(C)(F)F)n3)cc2C1 [Example 283, N-(4-((2-(1,1-difluoroethyl)-6-methylpyrimidin-4-yl)amino)-5-(5-ethyl-4,5,6,7-tetrahydropyrazolo[1,5-a]pyrazin-2-yl)pyridin-2-yl)acetamide]
IC50 (JH2 domain of human Tyk2): ≤ 10 nM
IC50 (Tyk2): ≤ 10 nM
